Results: patent publication US20190038542A1, “MOISTURIZING PERSONAL CARE COMPOSITIONS COMPRISING MONODISPERSE PHYTOGLYCOGEN NANOPARTICLES AND A FURTHER POLYSACCHARIDE” (MIREXUS BIOTECHNOLOGIES INC., priority 2016, published 2019)

Assay: Photostability of phytoglycogen-ethyl-4-aminocinnamate conjugate versus aminocinnamate
Type: physicochemical
Conditions: after 4 h of exposure to UV-irradiation, thin film
Experimental: Aminocinnamate and a phytoglycogen-ethyl-4-aminocinnamate conjugate were dissolved in ethanol or in water, respectively.
Solutions were deposited as thin films onto a quartz plate and dried in air for 30 min. After drying, the samples were irradiated with UV light, as in Example 11, for 4 h and then tested for their photostability.
Photodegradation was calculated from the decrease in the maximum absorption of the respective products.

activity retained: 40%
Compound: CCOC(=O)C=Cc1ccc(N)cc1 [aminocinnamate, ethyl 4-aminocinnamate]
